Data: paper PMC12785803, “Novel ACE-Inhibitory Peptides from Royal Jelly Proteins: Comprehensive Screening, Mechanistic Insights, and Endothelial Protection” (Foods, 2025)
Where two headings read alike, the source gives them in different places.

Tests used:
[1] = system: EA.hy926 cells; assay: ET-1 level in Ang II-stimulated cells (ELISA); type: cell-based; details: Ang II 1 μmol/L alone; control 13.82 ± 0.69
Procedure: (§1) To evaluate the effect of the peptide on endothelial function, NO and ET-1 levels were measured in this study. Briefly, EA.hy926 cells were seeded in 6-well plates at a density of 4 × 10^5 cells/well and allowed to adhere overnight. After removing the medium, cells were incubated with 1 μmol/L Ang II for 12 h to induce endothelial dysfunction. Subsequently, the peptide solutions at different concentrations (0.1, 0.2, and 0.4 mg/mL) or the captopril solutions were added, and the cells were incubated for an additional 24 h. For the blank control group, the cells received no treatment. After incubation, the culture supernatants were collected and centrifuged to remove debris. Both NO and ET-1 contents in the supernatants were quantified using commercial kits according to the manufacturer’s protocols. NO content was determined using the Griess reaction (OD = 550 nm), and ET-1 levels were measured via enzyme-linked immunosorbent assay (ELISA) (OD = 450 nm). Absorbance values were recorded at the corresponding wavelengths using a microplate reader (Spark 10M, Tecan, Männedorf, Switzerland).

[2] = system: EA.hy926 cells; assay: NO level in Ang II-stimulated cells (Griess); type: cell-based; details: Ang II 1 μmol/L alone; control 109.8 ± 3.93
Procedure: as §1

[3] = system: EA.hy926 cells; assay: Wound healing assay (Ang II-induced migration); type: cell-based; details: Ang II 1 μmol/L alone
Procedure: The effect of peptides on endothelial cell migration was evaluated using a wound healing assay. Briefly, EA.hy926 cells were seeded into 6-well plates and cultured at 37 °C in a humidified atmosphere containing 5% CO2. When the cells reached full confluence, they were treated with 1 μmol/L Ang II for 12 h to induce endothelial dysfunction. Subsequently, a straight scratch was created across the cell monolayer using a sterile 200 μL pipette tip. Detached cells were gently removed by rinsing with PBS, leaving a clear cell-free wound area. To minimize proliferation interference, cells were then incubated in high-glucose DMEM containing 1% FBS, supplemented with different concentrations of the peptides or captopril. Images of the same wound area were captured at 0 h, 6 h, and 24 h using a fluorescence microscope (Axio Observer, Zeiss, Jena, Germany), and the wound area was quantified using ImageJ software (version 1.54g).

[4] = system: ACE; set-up: method as in 4 sources, ref Han et al. [33] ||| ref 45 = [45]; PMID 35323475; doi:10.3390/md20030176; 45. Zheng S.-L. Luo Q.-B. Suo S.-K. Zhao Y.-Q. Chi C.-F. Wang B. Preparation, Identification, Molecular Docking Study and Protective Function on HUVECs of Novel ACE Inhibitory Peptides from Protein Hy ||| ref 36 = [36]; PMID 37888451; doi:10.3390/md21100516; 36. Hu Y.-D. Xi Q.-H. Kong J. Zhao Y.-Q. Chi C.-F. Wang B. Angiotensin-I-Converting Enzyme (ACE)-Inhibitory Peptides from the Collagens of Monkfish ( Lophius litulon ) Swim Bladders: Isolation, Charac ||| ref 46 = [46]; PMID 37944395; doi:10.1016/j.foodchem.2023.137921; 46. Du T. Xu Y. Xu X. Xiong S. Zhang L. Dong B. Huang J. Huang T. Xiao M. Xiong T. ACE Inhibitory Peptides from Enzymatic Hydrolysate of Fermented Black Sesame Seed: Random Forest-Based Optimization; details: cited from earlier work
Description: These comparisons support the interaction profile observed for PY ...

[5] = system: ACE; details: cited from earlier work
Description: As compared to traditional experiment-based screening approaches for ACE-inhibitory peptides, which are time-consuming and labor-intensive, an in silico strategy that integrates peptidomic analysis with virtual screening has emerged as a more efficient and cost-effective approach for identifying ACE-inhibitory peptides from food resources. For example, in a previous study by our group, a novel ACE-inhibitory peptide, MMDF, was identified from the simulated digest of oyster proteins using a virtual screening pipeline that incorporated bioactivity prediction, physicochemical proper ... || In recent years, the hydrolysates of royal jelly proteins (RJPs) have gained increasing attention due to their broad spectrum of biological activities, including antioxidant, antibacterial, anti-aging, and antihypertensive properties, which are largely attributed to their favorable amino acid composition and sequence characteristics.

[6] = biological target: T1, Angiotensin-converting enzyme (ACE) (Oryctolagus cuniculus, UniProt P12822); assay: In vitro ACE-inhibitory activity (HHL substrate, HPLC of hippuric acid); type: biochemical; details: tested at 0.5 mg/mL, p < 0.05
T1 sequence (P12822 34-1310): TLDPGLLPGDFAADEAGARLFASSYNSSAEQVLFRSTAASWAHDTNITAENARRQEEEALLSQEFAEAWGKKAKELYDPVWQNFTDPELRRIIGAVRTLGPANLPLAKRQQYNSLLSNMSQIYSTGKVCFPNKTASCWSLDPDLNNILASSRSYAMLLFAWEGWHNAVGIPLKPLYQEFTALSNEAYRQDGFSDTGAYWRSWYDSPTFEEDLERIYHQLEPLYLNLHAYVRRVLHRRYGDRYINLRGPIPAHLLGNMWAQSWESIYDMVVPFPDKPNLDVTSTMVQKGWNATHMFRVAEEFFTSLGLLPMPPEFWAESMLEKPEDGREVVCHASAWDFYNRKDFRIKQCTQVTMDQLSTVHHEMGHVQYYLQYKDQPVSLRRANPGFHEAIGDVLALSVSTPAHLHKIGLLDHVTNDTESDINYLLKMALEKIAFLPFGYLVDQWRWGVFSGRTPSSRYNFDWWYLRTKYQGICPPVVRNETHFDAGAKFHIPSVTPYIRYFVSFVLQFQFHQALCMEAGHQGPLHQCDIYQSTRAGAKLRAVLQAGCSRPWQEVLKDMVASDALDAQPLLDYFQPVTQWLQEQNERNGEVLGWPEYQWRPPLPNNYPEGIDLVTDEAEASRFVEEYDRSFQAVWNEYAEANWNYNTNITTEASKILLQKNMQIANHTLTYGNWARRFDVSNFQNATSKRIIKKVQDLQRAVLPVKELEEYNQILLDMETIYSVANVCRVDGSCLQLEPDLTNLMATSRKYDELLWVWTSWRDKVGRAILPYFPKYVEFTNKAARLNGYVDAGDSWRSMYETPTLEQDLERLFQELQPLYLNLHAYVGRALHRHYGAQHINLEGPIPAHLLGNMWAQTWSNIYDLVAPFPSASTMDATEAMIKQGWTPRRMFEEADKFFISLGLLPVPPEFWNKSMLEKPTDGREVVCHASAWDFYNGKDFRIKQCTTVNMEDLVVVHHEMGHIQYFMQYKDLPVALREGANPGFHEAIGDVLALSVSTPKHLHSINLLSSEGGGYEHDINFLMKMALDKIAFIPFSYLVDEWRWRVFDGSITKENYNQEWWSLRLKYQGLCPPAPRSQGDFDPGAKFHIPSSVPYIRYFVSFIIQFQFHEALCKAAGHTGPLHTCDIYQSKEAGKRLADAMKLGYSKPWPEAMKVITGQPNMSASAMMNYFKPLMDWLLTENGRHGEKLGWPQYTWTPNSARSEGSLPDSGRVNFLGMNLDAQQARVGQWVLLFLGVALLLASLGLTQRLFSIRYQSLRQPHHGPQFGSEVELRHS
Procedure: The ACE-inhibitory activity of the peptides was measured according to a previously reported method. Briefly, 50 μL of the peptide solution, prepared in borate buffer (pH 8.3) containing 0.3 mol/L NaCl, was mixed with 100 μL of HHL (5.82 mmol/L) prepared in the same buffer. After incubation at 37 °C for 5 min, the reaction was initiated by adding 15 μL of ACE solution (0.1 U/mL), also prepared in the borate buffer described above. The mixture was then incubated at 37 °C for 30 min and terminated by adding 150 μL of 1 mol/L HCl. For the blank control, the same procedure was performed using 50 μL of the borate buffer instead of the peptide solution.
The released hippuric acid (HA) was quantified using an Elite P3200 high-performance liquid chromatography (HPLC) system (Dalian Elite Analytical Instruments Co., Ltd., Dalian, China) equipped with a C18 reversed-phase column (Waters, Milford, MA, USA; 150 mm × 4.6 mm, 5 μm) at a detection wavelength of 228 nm. The mobile phase consisted of solvent A (water containing 0.05% trifluoroacetic acid) and solvent B (acetonitrile) in a ratio of 75:25 (v/v). […]
The ACE inhibition rate (%) was calculated using the following equation:(1) ACE Inhibitory rate%=Ablank−Asample/Ablank×100 where Ablank is the peak area of HA in the blank control test, and Asample is the peak area of HA in the sample test. […]

[7] = system: ACE; set-up: method as in 3 sources, ref 40 = [40]; PMID 38384691; doi:10.1016/j.fochx.2024.101211; 40. Wei G. Wang T. Li Y. He R. Huang A. Wang X. Identification, Structural Characterization, and Molecular Dynamic Simulation of ACE Inhibitory Peptides in Whey Hydrolysates from Chinese Rushan Cheese ||| ref 41 = [41]; PMID 39250996; doi:10.1016/j.ijbiomac.2024.135469; 41. Wang S. Zhang L. Wang H. Liu J. Hu Y. Tu Z. Angiotensin Converting Enzyme (ACE) Inhibitory Peptide from the Tuna ( Thunnus thynnus ) Muscle: Screening, Interaction Mechanism and Stability Int. J. ||| ref 42 = [42]; PMID 37793525; doi:10.1016/j.ijbiomac.2023.127196; 42. Wang S. Zhang L. Wang H. Hu Z. Xie X. Chen H. Tu Z. Identification of Novel Angiotensin Converting Enzyme (ACE) Inhibitory Peptides from Pacific Saury: In Vivo Antihypertensive Effect and Transpor; details: cited from earlier work
[8] = system: EA.hy926 cells; assay: GSH-Px activity in H2O2-damaged cells; type: cell-based; details: 500 μmol/L H2O2 alone; control 165.92 ± 5.21
Procedure: (§2) The activities of SOD and GSH-Px were assessed as follows. EA.hy926 cells were seeded in 6-well plates at 4 × 10^5 cells per well and cultured overnight. After attachment, the cells were serum-starved in high-glucose DMEM containing 1% FBS for 12 h, and then treated for 24 h with peptide solutions at the indicated concentrations or with captopril. […] After treatment, the cells were washed with ice-cold PBS, lysed on ice, and centrifuged to collect the supernatants. SOD and GSH-Px activities were measured spectrophotometrically at 550 nm and 412 nm, respectively, using a microplate reader. Enzyme activities were calculated, normalized to total protein content, and expressed as U/mg protein.

[9] = system: EA.hy926 cells; assay: SOD activity in H2O2-damaged cells; type: cell-based; details: 500 μmol/L H2O2 alone; control 126.15 ± 9.22
Procedure: as §2

Molecule: Angiotensin II (DRVYIHPF; Angiotensin-2; UniProt P01019 25-32, looked up) [Ang II, used to induce endothelial dysfunction]
- ET-1 content [1]: 15.65 ± 0.83 pg/mg prot
- NO level [2]: 58.95 ± 4.31 μmol/g prot
- Migration rate ([3]; 6 h, control 35.95 ± 1.08%): 42.44 ± 2.12%
- Migration rate ([3]; 24 h, control 79.33 ± 0.48%): 89.68 ± 1.47%

Molecule: VDRYF [from skipjack tuna muscle]
- Docking interactions with ACE ([4]; skipjack tuna muscle): formed hydrogen bonds with Ala354 and Tyr523 within S1 pocket, respectively

Molecule: SPGPW [identified from Lophius litulon]
- Docking interactions with ACE ([4]; monkfish swim bladder): formed a hydrogen bond with the catalytic residue His387
- IC50 ([5]; from Lophius litulon): 1.31 mM

Molecule: FDVDRW [RJP-derived peptide; synthesized]
- ACE-inhibitory activity in vitro (comparison in words) [6]: PYPDWSFAK and RPYPDWSF exhibited significantly higher ACE-inhibitory activity in vitro than FDVDRW and QWHDKIF

Molecule: SLPNYHPSPR [from fermented black sesame seed]
- Docking interactions with ACE ([4]; fermented black sesame seed): strong ACE inhibition due to direct Zn^2+ coordination

Molecule: KWEKPF [from Chinese Rushan cheese by-products]
- ACE inhibition mode ([7]; from Chinese Rushan cheese by-products): mixed-type ACE inhibition

Molecule: LEPWR [from Pacific saury]
- ACE inhibition mode ([7]; from Pacific saury): mixed-type ACE inhibition

Molecule: FDGPY [identified from Lophius litulon]
- Docking interactions with ACE ([4]; monkfish swim bladder): interacted with Ala354 and Tyr523 via hydrogen bonding and hydrophobic interactions
- IC50 ([5]; from Lophius litulon): 1.57 mM

Molecule: QWHDKIF [RJP-derived peptide; synthesized]
- ACE-inhibitory activity in vitro (comparison in words) [6]: PYPDWSFAK and RPYPDWSF exhibited significantly higher ACE-inhibitory activity in vitro than FDVDRW and QWHDKIF

Molecule: ITAPHW [from fermented black sesame seed]
- Docking interactions with ACE ([4]; fermented black sesame seed): strong ACE inhibition due to direct Zn^2+ coordination

Molecule: FPPDVA
- IC50 ([5]; from tuna dark muscle hydrolysates): 0.0871 ± 0.00102 mM

Molecule: SEGPK [identified from Lophius litulon]
- Docking interactions with ACE ([4]; monkfish swim bladder): interacted with Ala354 and Tyr523 via hydrogen bonding and hydrophobic interactions
- IC50 ([5]; from Lophius litulon): 1.21 mM

Molecule: OO [H2O2, hydrogen peroxide]
- GSH-Px activity [8]: 119.49 ± 3.94 U/mg prot
- SOD activity [9]: 67.47 ± 9.93 U/mg prot

Molecule: LTGCP [from tuna (Thunnus thynnus) muscle]
- ACE inhibition mode ([7]; from tuna (Thunnus thynnus) muscle): mixed-type ACE inhibition
